We go through nine molecules from PubChem BioAssay (NCI).

Among the test systems are A498 renal; HCC-2998 colon; IGROV1 ovarian; KM12 colon; LOX IMVI melanoma; MOLT-4 leukemia; NCI-H460 lung; OVCAR-4 ovarian; SK-MEL-2 melanoma; SK-OV-3 ovarian.
Assay in all cases: NCI tumour cell line growth inhibition, 48 h

SMILES strings stand for the structures. Values joined by “and” are separate entries in the source; they are usually repeats but may differ in a detail not shown here. Equal entries are not always repeated.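 Cells were grown in 96-well plates and exposed to each compound for 48 hours at five concentrations; endpoints were interpolated linearly between bracketing concentrations, or set to the highest concentration if not reached. Abbreviation: GI50, concentration required for 50% inhibition of growth. At the TGI there is no net growth.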

Turning to `O=C(Nc1nc2ccc(C(F)(F)F)cc2s1)c1cc(Cl)ccc1O`, the GI50 is 0.309 µM with A498 renal; 0.781 µM with HCC-2998 colon; 0.621 µM with IGROV1 ovarian; 0.611 µM in the assay on KM12 colon; 1.33 µM in the assay with LOX IMVI melanoma; 0.684 µM in the assay on MOLT-4 leukemia. Also, the GI50 in the assay on NCI-H460 lung is 0.414 µM; in the assay with OVCAR-4 ovarian, 1.87 µM; in the assay with SK-MEL-2 melanoma, 0.798 µM; in the assay with SK-OV-3 ovarian, 0.497 µM. The TGI with A498 renal is 2.26 µM; in the assay with HCC-2998 colon it was 73.6 µM; with IGROV1 ovarian, more than 100 µM; in the assay with KM12 colon it was 22 µM; with LOX IMVI melanoma, 15.8 µM; with MOLT-4 leukemia, 13.4 µM. The TGI in the assay with NCI-H460 lung is more than 100 µM; in the assay with OVCAR-4 ovarian, more than 100 µM; in the assay with SK-MEL-2 melanoma, 6.09 µM; in the assay with SK-OV-3 ovarian it was 4.77 µM.
For the molecule `CCn1c(-c2nonc2N)nc2c(C#CC(C)(C)O)nc(OC[C@H](N)c3ccccc3)cc21`, the GI50 in the assay on A498 renal is 0.157 µM; with HCC-2998 colon, 3.74 µM; in the assay with IGROV1 ovarian, 2.63 µM; in the assay on KM12 colon, 2.99 µM; with LOX IMVI melanoma, 3.84 µM; with MOLT-4 leukemia, 3.09 µM. Moreover, the GI50 with NCI-H460 lung was 2.76 µM; in the assay on OVCAR-4 ovarian, 5.01 µM; in the assay with SK-MEL-2 melanoma, 4.12 µM; in the assay with SK-OV-3 ovarian, 1.56 µM. The TGI in the assay with A498 renal was 7.63 µM; with HCC-2998 colon, 7.59 µM; in the assay on IGROV1 ovarian it was 7.23 µM; in the assay on KM12 colon, 6.39 µM; in the assay on LOX IMVI melanoma it was 7.89 µM; in the assay with MOLT-4 leukemia, 14.7 µM. The TGI worked out at 6.31 µM in the assay on NCI-H460 lung, 9.61 µM with OVCAR-4 ovarian, 8.24 µM with SK-MEL-2 melanoma and 5.71 µM in the assay with SK-OV-3 ovarian.
Consider `O=C1NC(=O)C(c2cnc3ccccn23)=C1c1cn2c3c(cc(F)cc13)CN(C(=O)N1CCCCC1)CC2`, for which the GI50 in the assay on A498 renal was 0.0108 µM; in the assay on HCC-2998 colon it was 14.6 µM; in the assay with IGROV1 ovarian, 21 µM; with KM12 colon, 10.6 µM; in the assay with MOLT-4 leukemia, 3.41 µM; in the assay on NCI-H460 lung, 2.45 µM. The GI50 with OVCAR-4 ovarian was 1.5 µM; in the assay with SK-MEL-2 melanoma, 8.8 µM; in the assay with SK-OV-3 ovarian, 15.5 µM. Further, the TGI in the assay with A498 renal was 11.5 µM; with HCC-2998 colon, 32.8 µM; in the assay on IGROV1 ovarian, more than 80 µM; with KM12 colon it was 25.4 µM; in the assay with LOX IMVI melanoma it was 15.8 µM; in the assay with MOLT-4 leukemia, more than 81.4 µM. The TGI in the assay with NCI-H460 lung was 29.1 µM; with OVCAR-4 ovarian, more than 63.4 µM; with SK-MEL-2 melanoma, 27.2 µM; in the assay with SK-OV-3 ovarian, 71.9 µM.
As to `CCOC(=O)CCCn1c(SC)nc2[nH]cc(-c3ccccc3)c2c1=O`, the GI50 in the assay on A498 renal is 16.5 µM; in the assay on HCC-2998 colon, more than 100 µM; in the assay with IGROV1 ovarian, 16.5 µM; with KM12 colon, 16.8 µM; in the assay on LOX IMVI melanoma, 11.3 µM; in the assay on MOLT-4 leukemia, 0.489 µM. For the same molecule, the GI50 in the assay with NCI-H460 lung is 33.6 µM; in the assay with OVCAR-4 ovarian, 31.4 µM; in the assay on SK-MEL-2 melanoma, 21.6 µM; in the assay with SK-OV-3 ovarian it was 25.6 µM. Besides, the TGI is 63.3 µM in the assay on A498 renal; more than 100 µM in the assay with HCC-2998 colon; 47 µM with IGROV1 ovarian; 38.2 µM in the assay with KM12 colon; 25.8 µM with LOX IMVI melanoma; 10.1 µM with MOLT-4 leukemia. The TGI with NCI-H460 lung is more than 100 µM; with OVCAR-4 ovarian, 80.8 µM; with SK-MEL-2 melanoma, 45.8 µM; in the assay on SK-OV-3 ovarian, 93.6 µM.
For `O=C(/C=C/c1ccccc1O)c1ccccc1O`, the TGI in the assay with A498 renal, in the assay with HCC-2998 colon, in the assay on IGROV1 ovarian, in the assay with KM12 colon, in the assay on LOX IMVI melanoma and with MOLT-4 leukemia was more than 100 µM in each case. For the same molecule, the TGI in the assay with NCI-H460 lung, in the assay on OVCAR-4 ovarian, in the assay on SK-MEL-2 melanoma and with SK-OV-3 ovarian was more than 100 µM each time.
For the molecule `CC(C)CCN1c2nc(Nc3cc(F)c(O)c(F)c3)ncc2N(C)C(=O)C1C` (configuration not stated), the GI50 in the assay on A498 renal is 18.3 µM; in the assay with HCC-2998 colon, 3.54 µM; in the assay on IGROV1 ovarian, 8.83 µM; with KM12 colon, 2.92 µM; with LOX IMVI melanoma, 4.11 µM; in the assay with MOLT-4 leukemia, 4.1 µM. Further, the GI50 is 3.91 µM in the assay on NCI-H460 lung, 18.6 µM in the assay on OVCAR-4 ovarian, 3.14 µM with SK-MEL-2 melanoma and 2.89 µM in the assay on SK-OV-3 ovarian. The TGI in the assay with A498 renal was 54.6 µM; with HCC-2998 colon, 17.1 µM; in the assay with IGROV1 ovarian, more than 61.2 µM; in the assay with KM12 colon it was 14.7 µM; in the assay with LOX IMVI melanoma it was 20.8 µM; with MOLT-4 leukemia it was 19.9 µM. The TGI with NCI-H460 lung was 17 µM; in the assay with OVCAR-4 ovarian, more than 100 µM; with SK-MEL-2 melanoma, 15.2 µM; with SK-OV-3 ovarian, more than 100 µM.
In the case of `O/N=C/C1C(OCc2ccccc2)C(OCc2ccccc2)C(OCc2ccccc2)CN1Cc1ccccc1` (configuration not stated), the TGI in the assay with A498 renal was more than 100 µM; with HCC-2998 colon, more than 100 µM; in the assay on IGROV1 ovarian, 65.9 µM and > 100 µM; in the assay on KM12 colon, 47.2 µM and 19.6 µM; in the assay with LOX IMVI melanoma, 29.4 µM and > 100 µM; in the assay with MOLT-4 leukemia, 31.4 µM. In addition, the TGI in the assay with NCI-H460 lung was 32.4 µM and 29.9 µM; in the assay on OVCAR-4 ovarian it was more than 100 µM; with SK-MEL-2 melanoma it was 53.9 µM; in the assay with SK-OV-3 ovarian it was 51.3 µM and > 100 µM. Further, the GI50 with KM12 colon is 14.4 µM and 2.86 µM; with NCI-H460 lung, 8.94 µM and 3.24 µM; in the assay on SK-OV-3 ovarian, 22.7 µM and > 100 µM.
`CNC(=O)N(C)N=NCCCl`: the TGI in the assay on A498 renal, in the assay with HCC-2998 colon, with IGROV1 ovarian, in the assay on KM12 colon, in the assay with LOX IMVI melanoma and with MOLT-4 leukemia was more than 100 µM in each case. The TGI in the assay on NCI-H460 lung, in the assay with OVCAR-4 ovarian, in the assay with SK-MEL-2 melanoma and with SK-OV-3 ovarian was more than 100 µM in each case.
Consider `O=c1[nH]c(=O)n(C2OC(CO)C(O)C2O)cc1NN=NCc1ccccc1` (configuration not stated), for which the TGI with A498 renal, with HCC-2998 colon, with IGROV1 ovarian, in the assay on KM12 colon, in the assay with LOX IMVI melanoma and with MOLT-4 leukemia was more than 100 µM throughout. The TGI with NCI-H460 lung, in the assay on OVCAR-4 ovarian, in the assay on SK-MEL-2 melanoma and in the assay with SK-OV-3 ovarian was more than 100 µM throughout.
